Laboratory results published in patent US6087119A, “Method for determining the catalytic activity of factor IXa” (Roche Diagnostics GmbH, priority 1996, dated 2000).

Target: native FIXa (human) (Homo sapiens, UniProt P00740)
Test: Determination of the dissociation constant Ki according to DIXON, native FIXa
Format: biochemical
Set-up: 0.14 μmol/l native FIXa (human)
Details: pH 8.5, 33% ethylene glycol; for 1/V: 0.07 μmol/l native FIXa
Description: Determination of the Dissociation Constant Ki According to the Method of DIXON
42 mmol/l Tris-HCl, pH 8.5
inhibitor in stepped concentrations (0, 20.4 and 40.8 μmol/l) […]
0.07 μmol/l native FIXa (human)
TIPPS-(3-Am)Phe-iNip-OH was used as the inhibitor and the inhibitory effect was determined as an example for two substrates under optimal conditions (pH 8.5, 33% ethylene glycol).

native FIXa (human), sequence (P00740 227-461 limits assumed): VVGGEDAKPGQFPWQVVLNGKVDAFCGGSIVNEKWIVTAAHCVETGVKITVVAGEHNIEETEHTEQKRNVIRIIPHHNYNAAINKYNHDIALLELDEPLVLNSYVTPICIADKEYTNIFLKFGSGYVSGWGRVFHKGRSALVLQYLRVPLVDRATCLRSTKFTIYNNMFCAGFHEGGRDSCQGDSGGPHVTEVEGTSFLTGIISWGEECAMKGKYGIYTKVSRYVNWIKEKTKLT
native FIXa (human), sequence (P00740 47-191 partner limits assumed): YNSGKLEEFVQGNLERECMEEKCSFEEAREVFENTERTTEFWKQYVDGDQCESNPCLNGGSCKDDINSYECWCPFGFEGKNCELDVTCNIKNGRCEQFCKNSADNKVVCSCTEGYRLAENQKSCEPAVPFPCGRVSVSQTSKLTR

## CC(C)c1cc(C(C)C)c(S(=O)(=O)NC(Cc2cccc(C(=N)N)c2)C(=O)N2CCC(C(=O)O)CC2)c(C(C)C)c1 (stereo not shown) [TIPPS-(3-Am)Phe-iNip-OH, Nα-(2,4,6-triisopropylbenzenesulfonyl)-3-amidino-(D,L)-phenylalanine-isonipecotic acid]
Inhibitor 20.4 μmol/l, MeSO2-D-HHT-Gly-Arg-pNA 0.25 μmol/l
  1/V: 129 min/mA
Inhibitor 20.4 μmol/l, MeSO2-D-HHT-Gly-Arg-pNA 0.51 μmol/l
  1/V: 77.5 min/mA
Inhibitor 20.4 μmol/l, MeSO2-D-HHT-Gly-Arg-pNA 1.02 μmol/l
  1/V: 29.5 min/mA
Inhibitor 40.8 μmol/l, MeSO2-D-HHT-Gly-Arg-pNA 0.25 μmol/l
  1/V: 255 min/mA
Inhibitor 40.8 μmol/l, MeSO2-D-HHT-Gly-Arg-pNA 0.51 μmol/l
  1/V: 154 min/mA
Inhibitor 40.8 μmol/l, MeSO2-D-HHT-Gly-Arg-pNA 1.02 μmol/l
  1/V: 53.2 min/mA
Native FIXa, substrate MeSO2-D-HHT-Gly-Arg-pNA
  Ki: 9 µM
